From publication PMC9065678, “BI 1015550 is a PDE4B Inhibitor and a Clinical Drug Candidate for the Oral Treatment of Idiopathic Pulmonary Fibrosis” (Frontiers in Pharmacology, 2022)

Tests used:
PDE4B = target: T1, PDE4B (Homo sapiens, UniProt Q07343); experiment: Recombinant PDE activity, scintillation proximity assay: PDE4B; format: biochemical
T1 construct: PDE4B NG_029038: AA 152–484; made in house; host or cells: SF9 insect cells (baculovirus, Bac-To-Bac, pFastbac)
Description: For the preparation of human recombinant PDEs of interest, the Bac-To-Bac baculoviral expression system from Invitrogen (Carlsbad, CA, United States) was used according to the instruction manual. […] The plasmids were transformed into DH10Bac bacteria, SF9 insect cells were transfected with the bacmid DNA, and the resulting baculoviruses were stored and used for further rounds of infections. For protein production, SF9 cells were infected until a cytopathic effect was visible (after about 72 h), the SF9 cells were harvested and broken up by 3 freeze/thaw cycles, and by shearing 10 times through a 0.1 mm cannula using a syringe. […] The Phosphodiesterase Scintillation Proximity Assays (TRKQ7090 for [^3H]cAMP, GE Healthcare Europe GmbH, Chalfont St Giles, United Kingdom, and TRKQ7100 for [^3H]cGMP, Perkin Elmer, Waltham, MA, United States) were performed essentially according to the instruction manual. […] Assay solutions containing recombinant baculoviral-expressed PDE (to give an activity of 5.000–20.000 cpm corresponding to 5–20% of total activity added), 50 mmol/L Tris/HCl pH 7.5, 8.3 mmol/L MgCl2, 1.7 mmol/L EGTA, and 10 µL radiolabeled substrate (0.05 µCi in H2O) were incubated for 1 h at 30°C (final volume 100 μL).

[1] = system: LPS-induced neutrophil influx into the BALF; experiment: LPS-induced neutrophil influx into the BALF of Suncus murinus; format: in vivo
Text: Compared with other animal species used to study emesis induction by PDE4 inhibitors, like ferrets, dogs, minipigs, or monkeys, Suncus murinus allows the testing of a sufficient number of animals to provide a high statistical power. […] Male Suncus murinus (weight 50–55 g) from Boehringer Ingelheim (Biberach an der Riss, Germany) or male Wistar rats (200–250 g, Charles River), eight animals per group, were used. […] For this purpose, animals in the positive control and treatment groups were put into a circular Plexiglas chamber with 16 pie-like compartments for one animal each, and were consecutively exposed to nebulized LPS for 30 min. The LPS solution used for nebulization contained 1 mg/mL LPS in phosphate-buffered saline (PBS). Nebulization was performed with the commercially available PARI Master® nebulizer with a PARI Master® LL adapter (Pari GmbH, Starnberg, Germany). 4 h after LPS exposure, the animals were anesthetized and euthanized by cervical dislocation. After sacrifice, the trachea was cannulated and bronchoalveolar lavage was performed by instilling and re-aspirating two-times 1 mL (Suncus murinus) or 5 mL (rat) lavage buffer (PBS +2% bovine serum albumin). BALF volumes were recorded manually. Determination of neutrophil numbers in BALF was performed using a blood hemacytometer (Sysmex XT-1800i, Kobe, Japan).

[2] = system: LPS-induced TNF-α release in whole blood ex vivo; experiment: LPS-induced TNF-α release in whole blood ex vivo in mice; design: species or system mouse
Description: BI 1015550 was suspended in H2O plus three equivalents’ HCl (i.e. 66 µL HCl per mg of drug substance) to concentrations of […]. Female NMRI mice from Charles River (25–30 g) were used. Either vehicle (H2O plus three equivalents’ HCl) or BI 1015550 was administered orally (by gavage) in a volume of 10 mL/kg body weight resulting in final doses of 3.0, 1.0, 0.1, and 0.01 mg/kg body weight. 2 h after administration, the animals were anesthetized and blood was drawn by retroorbital puncture with heparinized capillaries before sacrifice by cervical dislocation. Blood was collected in Lithium-Heparin Microvettes® for anticoagulation. 100 µL of whole blood was pipetted into an Eppendorf tube containing either LPS solution (final concentration 900 ng/mL) or solvent. Subsequently, the samples were placed for 4 h in an incubator at 37°C, […], and 95% humidity before plasma was prepared by a two-step centrifugation at 10.840 × g over 10 min at 4°C. TNF-α concentrations in the plasma samples were determined using a commercially available TNF-α ELISA kit (BD OptEIA™ Mouse TNF ELISA Set from Becton Dickinson) according to the manufacturer’s instructions.

[3] = system: LPS-stimulated TNF-α release; experiment: LPS-induced TNF-α release in human whole blood; format: cell-based; settings: LPS 0.1 µg/mL
Description: Heparinized whole blood was collected from the Aorta abdominalis of WI (Han) male rats (Charles River Laboratories, Sulzfeld, Germany) and from healthy male human donors, and treated with 1 µL (rat) or 2.5 µL (human) of BI 1015550 or vehicle [final DMSO concentration 0.5% (v/v)]. Final assay volumes were 200 μL (rat) and 500 μL (human). After incubation for 30 min at 37°C, 95% humidity, and 5% CO2, cultures were treated with LPS [final concentration 10 µg/mL (rat), 0.1 µg/mL (human)] or saline. After 7 h, plates were centrifuged at 3.200 × g at 4°C for 10 min and plasma was used for cytokine measurement. Meso Scale Discovery (MSD) (Rockville, MD, United States) rat and human pro-inflammatory panels were used for detection of TNF-α and IL-6 in rat plasma [diluted 1:2 (v/v)]) and human plasma [negative control undiluted, other samples diluted 1:200 (v/v)] according to the manufacturer’s instructions.

Suncus murinus = experiment: Determination of emesis in male Suncus murinus; format: in vivo
Description: All animals (50–55 g) were dosed orally by gavage immediately before transfer to whole-body plethysmography boxes. The volume of application was set to 10 mL/kg body weight. For assessment of the emetic events, animals were placed in the whole-body plethysmography boxes without any access to feed or water for 3 h. The whole-body plethysmography system used to detect emetic events consisted of five major components: 1) plethysmography boxes for mice (Buxco®, PLY 3211-F, Data Sciences International, New Brighton, MN, United States), 2) a pressure transducer with an amplifier, 3) a bias flow regulator, 4) a PC-based system to receive and process the amplified signals, and 5) a PC-based data acquisition system (NOTOCORD-hem™, Instem, Stone, United Kingdom) to process signals, as well as in-house-developed software to detect and identify changes in breathing pattern. Retching and vomiting induced characteristic changes in the breathing pattern of animals and these were recorded by whole-body plethysmography and translated for NOTOCORD recording. A number of preset definitions (computer-based criteria) characteristic for emetic events were determined. Peaks that met the set internal computer-based criteria and exceeded the threshold of more than 600 mV were labeled as emetic events by the system on a standard basis.

Plasma protein binding = format: in vitro ADME

T1 sequence (Q07343 324-656): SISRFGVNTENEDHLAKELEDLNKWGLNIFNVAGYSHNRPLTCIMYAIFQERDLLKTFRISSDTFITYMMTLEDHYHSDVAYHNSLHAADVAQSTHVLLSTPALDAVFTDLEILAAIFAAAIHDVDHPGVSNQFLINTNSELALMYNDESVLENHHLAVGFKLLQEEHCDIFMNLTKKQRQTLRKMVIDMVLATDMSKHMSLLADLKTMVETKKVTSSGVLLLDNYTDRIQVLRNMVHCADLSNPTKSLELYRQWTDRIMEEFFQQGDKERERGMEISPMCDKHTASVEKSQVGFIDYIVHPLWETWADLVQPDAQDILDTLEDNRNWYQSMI

## [O-][S+]1CCc2nc(N3CCC(c4ncc(Cl)cn4)CC3)nc(NC3(CO)CCC3)c21 (stereo not drawn) [BI 1015550]
PDE4B
  Selectivity for inhibition of PDE4B versus PDE4D: roughly 10 fold
PDE4B; human recombinant active site fragment, substrate [3H]cAMP, means from n independent experiments, read-out: IC50 PDE4B2
  IC50: 10 nM
[1]; 0.1 mg/kg p.o.
  Neutrophils in BALF, inhibition in % given as negative number: −23%
[1]; 0.3 mg/kg p.o.
  Neutrophils in BALF, inhibition in % given as negative number: −36%
[1]; 1.0 mg/kg p.o.
  Neutrophils in BALF, inhibition in % given as negative number: −59%
[1]; oral, 30 min before nebulized LPS
  ED50 LPS-induced BALF neutrophils: 0.6 mg/kg
[2]; 0.01 mg/kg p.o.
  TNF-α concentration in plasma, inhibition in % given as negative number: −38%
[2]; 0.1 mg/kg p.o.
  TNF-α concentration in plasma, inhibition in % given as negative number: −50%
[2]; 1.0 mg/kg p.o.
  TNF-α concentration in plasma, inhibition in % given as negative number: −83%
[2]; 3 mg/kg oral, initial experiment, data not shown
  Inhibition of TNF-α: 93%
[2]; oral, blood taken 2 h after administration, LPS 4 h
  ED50 of LPS-induced TNF-α release: 0.04 mg/kg
[3]
  IC50: 670 nM
  Maximal inhibition of TNF-α release: 70–80%
Suncus murinus; 0.5 mg/kg oral, 3 h observation, data not shown
  Animals showing emesis: 3 of 24
Suncus murinus; 0.5 mg/kg oral, data not shown
  Mean emetic events per animal: 0.1
Suncus murinus; 10 × ED50 oral (BI 1015550 6 mg/kg, roflumilast 10 mg/kg)
  Animals showing emesis: 5 out of 24
Suncus murinus; oral (BI 1015550 6 mg/kg, roflumilast 10 mg/kg), 24 animals
  % of vomiting animals, emesis at 10 × ED50: 21%
Plasma protein binding
  Plasma protein binding: 77%
